Experimental data taken from the NIST ThermoML archive (doi:10.1021/je049585t).
Numbers after ± are expanded uncertainties.

Experiment: molar heat capacity at constant pressure
Settings: 101.33 kPa

CC1=CCC2C(=O)OC(=O)C2C1 (stereo not drawn) [4-methyl-cyclohex-4-ene-1, 2-dicarboxylic acid anhydride]
Settings | molar heat capacity at constant pressure [J/K/mol]
205 K, Crystal | 122.4 ± 1.2
205.18 K, Crystal | 123.46 ± 1.2
207.19 K, Crystal | 124.73 ± 1.2
209.14 K, Crystal | 126.14 ± 1.2
210 K, Crystal | 126.39 ± 1.2
211.09 K, Crystal | 127.51 ± 1.2
213.03 K, Crystal | 128.87 ± 1.2
214.97 K, Crystal | 130.45 ± 1.2
215 K, Crystal | 130.57 ± 1.2
216.9 K, Crystal | 132.32 ± 1.2
218.84 K, Crystal | 133.96 ± 1.2
220 K, Crystal | 134.91 ± 1.2
220.75 K, Crystal | 135.72 ± 1.2
222.7 K, Crystal | 137.13 ± 1.3
224.58 K, Crystal | 138.58 ± 1.3
225 K, Crystal | 139.36 ± 1.3
226.56 K, Crystal | 139.98 ± 1.3
228.41 K, Crystal | 141.35 ± 1.3
230 K, Crystal | 143.9 ± 1.3
230.19 K, Crystal | 142.86 ± 1.3
232.01 K, Crystal | 144.4 ± 1.3
233.86 K, Crystal | 145.93 ± 1.3
235 K, Crystal | 148.46 ± 1.3
235.74 K, Crystal | 147.41 ± 1.3
237.59 K, Crystal | 149.22 ± 1.3
239.37 K, Crystal | 150.76 ± 1.3
240 K, Crystal | 153.02 ± 1.4
241.16 K, Crystal | 152.29 ± 1.4
242.94 K, Crystal | 153.83 ± 1.4
244.82 K, Crystal | 155.45 ± 1.4
245 K, Crystal | 157.52 ± 1.4
246.54 K, Crystal | 157.09 ± 1.4
248.36 K, Crystal | 158.9 ± 1.4
250 K, Crystal | 161.95 ± 1.4
250.17 K, Crystal | 160.56 ± 1.4
251.99 K, Crystal | 162.22 ± 1.4
253.81 K, Crystal | 163.9 ± 1.4
255 K, Crystal | 166.26 ± 1.4
255.54 K, Crystal | 165.36 ± 1.4
257.36 K, Crystal | 167.29 ± 1.4
259.09 K, Crystal | 168.63 ± 1.5
260 K, Crystal | 170.45 ± 1.5
260.82 K, Crystal | 170.5 ± 1.5
262.61 K, Crystal | 172.01 ± 1.5
264.31 K, Crystal | 173.55 ± 1.5
265 K, Crystal | 174.52 ± 1.5
266.12 K, Crystal | 175.31 ± 1.5
267.82 K, Crystal | 177.02 ± 1.5
269.53 K, Crystal | 178.52 ± 1.5
270 K, Crystal | 178.5 ± 1.5
271.28 K, Crystal | 180.17 ± 1.5
273.31 K, Crystal | 181.94 ± 1.5
275 K, Crystal | 182.44 ± 1.5
275.35 K, Crystal | 183.81 ± 1.5
277.03 K, Crystal | 185.45 ± 1.6
278.73 K, Crystal | 187.1 ± 1.6
280 K, Crystal | 186.41 ± 1.6
280.36 K, Crystal | 188.67 ± 1.6
282.45 K, Crystal | 190.66 ± 1.6
284.97 K, Crystal | 193.03 ± 1.6
285 K, Crystal | 190.55 ± 1.6
287.46 K, Crystal | 195.7 ± 1.6
289.88 K, Crystal | 197.97 ± 1.6
290 K, Crystal | 195 ± 1.6
292.31 K, Crystal | 200.61 ± 1.7
294.67 K, Crystal | 203.16 ± 1.7
295 K, Crystal | 199.98 ± 1.6
297.1 K, Crystal | 205.53 ± 1.7
298.15 K, Crystal | 203.5 ± 1.7
299.37 K, Crystal | 207.64 ± 1.7
300 K, Crystal | 205.75 ± 1.7
301.81 K, Crystal | 210.9 ± 1.7
304.16 K, Crystal | 213.44 ± 1.7
305 K, Crystal | 212.62 ± 1.7
306.51 K, Crystal | 215.82 ± 1.7
308.81 K, Crystal | 218.8 ± 1.8
310 K, Crystal | 221 ± 1.8
311.13 K, Crystal | 221.26 ± 1.8
313.43 K, Crystal | 224.91 ± 1.8
315 K, Crystal | 231.34 ± 1.8
315.72 K, Crystal | 227.54 ± 1.8
317.98 K, Crystal | 230.32 ± 1.8
320 K, Crystal | 244.2 ± 1.9
320.22 K, Crystal | 234.71 ± 1.9
322.44 K, Crystal | 240.42 ± 1.9
324.6 K, Crystal | 251.25 ± 2
325 K, Crystal | 260.21 ± 2
326.7 K, Crystal | 266.66 ± 2.1
328.7 K, Crystal | 300.96 ± 2.3
330 K, Crystal | 280.12 ± 2.2
337.34 K, Liquid | 308.51 ± 2.3
339.25 K, Liquid | 307.6 ± 2.3
340 K, Liquid | 306.94 ± 2.3
341.15 K, Liquid | 306.76 ± 2.3
343.06 K, Liquid | 306.95 ± 2.3
344.96 K, Liquid | 308.07 ± 2.3
345 K, Liquid | 308.18 ± 2.3
346.86 K, Liquid | 309.65 ± 2.4
348.76 K, Liquid | 311.73 ± 2.4
350 K, Liquid | 313.29 ± 2.4
350.67 K, Liquid | 314.26 ± 2.4
352.57 K, Liquid | 316.99 ± 2.4
354.47 K, Liquid | 319.51 ± 2.4
355 K, Liquid | 320.24 ± 2.4
356.36 K, Liquid | 322.01 ± 2.4
358.26 K, Liquid | 324.95 ± 2.5
360 K, Liquid | 327.6 ± 2.5
360.13 K, Liquid | 327.9 ± 2.5
